Values joined by “and” are separate entries in the source; they are usually repeats but may differ in a detail not shown here. Equal entries are not always repeated. Where two headings read alike, the source gives them in different places. Marks after values point to notes of the source that are not given here.
Tests used:
[1] = test system: human breast-cancer cell lines; design: method as in Walsh et al. (2005); details: ref Walsh et al. (2005), read-out: EC50 for an increase of calcium ion concentration; cited from earlier work
liver [2] = details: ref Kurebayashi et al. (2010), cited from earlier work
[3] = ref Csanády et al. 2002; cited from earlier work
small intestine = details: cited from earlier work
[4] = determined experimentally, ref Doerge et al. (2011), cited from earlier work
[5] = cited from earlier work
[6] = ref Schönfelder et al. (2002); cited from earlier work
[7] = cited from earlier work; remark: listed apart in the source
[8] = in vivo; cited from earlier work
liver [9] = details: cited from earlier work
[10] = Margin of exposure (MOE = EC50/Cmax) back-of-the-envelope calculation; design: species or system human
[11] = PBPK model parametrization and calibration with biomonitoring data; design: species or system human; details: basic BPA model
Description: It consists of the compartments titled serum, liver, fat, skin, gonads, brain, “richly perfused tissue,” “slowly perfused tissue”, and two single-compartment submodules for BPA-g and BPA-s in serum (see Figure 2). In the compartment titled “richly perfused tissue,” compartments were lumped with a perfusion greater than 0.1mL/min/g tissue (heart, kidneys, small and large intestine, pancreas, spleen, and stomach), and in the compartment titled “slowly perfused tissue,” compartments were lumped with a perfusion smaller than 0.1mL/min/g tissue (muscle and skeleton) ([Edginton et al. 2006]; [ICRP 2002], see Table S1 for the aggregated parameters). […] Fixing the scaling error caused the aforementioned discrepancy, and we had to review and readjust the model parameters to the biomonitoring data.
In a first step to readjust and further develop the PBPK model, we collected all studies that investigated the metabolism parameters used in the model and gathered data from different studies that measured the same metabolism routes (see Table S2). […] For this purpose, we calculated the mean relative deviation (MRD) and average fold error (AFE) to assess precision and bias of the model predictions using Equations 1 and 2 ([Sheiner and Beal 1981]), as done previously ([Ito and Houston 2005]; [Vogt 2014]; [Yang et al. 2015]). […]

[12] = cited from earlier work; remark: listed apart in the source
[13] = basic PBPK model, ref Yang et al. (2015)
[14] = EC50 (Kitamura et al. 2005)/highest Cmax of basic PBPK model (Table 9)

SMILES: CC(C)(c1ccc(O)cc1)c1ccc(O)cc1 [BPA, bisphenol A]
- EC50 [1]: 100 pM
- Km (liver [2]; read-out: Hepatic sulfation Km): 10.1 µM
- Hepatic sulfation vmax (liver [2]): 149^n nmol/h/g liver
- fu (unbound fraction) [3]: 0.06
- Km (small intestine; read-out: Glucuronidation in enterocytes / intestinal glucuronidation Km, used in basic model, ref Trdan Lušin et al. (2012)): 58.4 µM
- Km (small intestine; read-out: Glucuronidation in enterocytes Km range, ref Trdan Lušin et al. (2012), Mazur et al. (2010)): 58.4 to 80.1 µM
- Km (small intestine; read-out: Intestinal glucuronidation Km ±SD, ref Mazur et al. (2010)): 80.1 µM
- Intestinal glucuronidation vmax ±SD (small intestine; ref Mazur et al. (2010)): 29.2 ± 7.2 nmol/h/mg microsomal protein
- Glucuronidation in enterocytes vmax range (small intestine; ref Trdan Lušin et al. (2012), Mazur et al. (2010)): 125–361^j nmol/h/g liver
- Glucuronidation in enterocytes vmax - used in basic model (small intestine; ref Trdan Lušin et al. (2012)): 361^i nmol/h/g bw
- Intestinal glucuronidation vmax ±SD (small intestine; ref Trdan Lušin et al. (2012)): 84.0 ± 6.0 nmol/h/mg microsomal protein
- PTS richly perfused tissue/serum ([4]; value for brain used): 2.8
- PTS slowly perfused tissue/serum ([4]; value for muscle used): 2.7
- logPow ([5]; mean, ref Bayer 1996, Korenman 1973): 3.36
- pKa ([5]; ref Bautista-Toledo et al. 2005): 10.4 and ~10.4
- fetal plasma concentration, times higher than corresponding maternal plasma [6]: up to 7 times
- Oral uptake from small intestine to liver ([7]; basic PBPK model, ref Kortejärvi et al. (2007)): 2.10^a 1/h/kg BW^−0.25
- EHR as glucuronide [7, 13]: 0.20^f 1/h/kg BW^−0.25
- EHR unconjugated [7, 13]: 0.20^f 1/h/kg BW^−0.25
- Fraction of glucuronide in liver taken up directly into serum (no EHR) [7, 13]: 0.9^f
- Urinary excretion glucuronide [7, 13]: 0.35^f 1/h/kg BW^0.75
- Urinary excretion ([7]; unconjugated, basic PBPK model, ref Yang et al. (2015)): 0.060^f 1/h/kg BW^0.75
- EHR share ([7]; used in BPA PBPK model, ref Yang et al. (2015)): 10%
- AUC, mean (range), measured [8]: 15.5 (0.986–23.2) nM*h for 1.5 h
- Cmax [8]: 16.5 nM
- Hepatic glucuronidation vmax ±SD (liver [9]; arithmetic mean of female and male kinetics, ref Elsby et al. (2001)): 333 ± 21 nmol/h/mg microsomal protein
- Hepatic glucuronidation vmax ±SD (liver [9]; arithmetic mean of female and male kinetics, ref Kuester and Sipes (2007)): 85.2 ± 31.4 nmol/h/mg microsomal protein
- Hepatic glucuronidation vmax ±SD (liver [9]; arithmetic mean of female and male kinetics, ref Mazur et al. (2010)): 190 ± 16.9 nmol/h/mg microsomal protein
- Hepatic glucuronidation vmax range (liver [9]; range of published values, ref Coughlin et al. (2012), Kurebayashi et al. (2010), Trdan Lušin et al. (2012), Elsby et al. (2001), Kuester and Sipes (2007), Mazur et al. (2010), Street et al. (2017)): 1,270–16,300^c nmol/h/g liver
- Km (liver [9]; read-out: Hepatic glucuronidation Km ±SD, arithmetic mean of female and male kinetics, ref Elsby et al. (2001)): 71.9 µM
- Km (liver [9]; read-out: Hepatic glucuronidation Km ±SD, arithmetic mean of female and male kinetics, ref Kuester and Sipes (2007)): 8.5 µM
- Km (liver [9]; read-out: Hepatic glucuronidation Km ±SD, arithmetic mean of female and male kinetics, ref Mazur et al. (2010)): 4.25 µM
- Km (liver [9]; read-out: Hepatic glucuronidation Km ±SD, ref Street et al. (2017)): 23 µM
- Km (liver [9]; read-out: Hepatic glucuronidation Km ±SD, ref Trdan Lušin et al. (2012)): 8.9 µM
- Km (liver [9]; read-out: Hepatic glucuronidation Km, n=1, ref Kurebayashi et al. (2010)): 5.3 µM
- Km (liver [9]; read-out: Hepatic glucuronidation Km, used in basic model, ref Coughlin et al. (2012)): 45.8 µM
- Hepatic glucuronidation vmax - used in basic model (liver [9]; ref Coughlin et al. (2012)): 9,040^a nmol/h/g liver
- Hepatic glucuronidation vmax ±SD (liver [9]; ref Coughlin et al. (2012)): 283 ± 18 nmol/h/mg microsomal protein
- Hepatic glucuronidation vmax (liver [9]; ref Kurebayashi et al. (2010)): 39.8 nmol/h/mg microsomal protein
- Hepatic glucuronidation vmax ±SD (liver [9]; ref Street et al. (2017)): 270 ± 60 nmol/h/mg microsomal protein
- Hepatic glucuronidation vmax ±SD (liver [9]; ref Trdan Lušin et al. (2012)): 510 ± 18 nmol/h/mg microsomal protein
- MOE in gonads [10, 14]: 4,670
- MOE in serum [10, 14]: 12,000
- MOE in serum of females ([10]; EC50 of Walsh et al. (2005), Cmax P95/P95): 1.25
- MOE in fetal serum ([10]; EC50 of Walsh et al. (2005), worst-case accumulation in the fetus): 0.179
- vmax of hepatic sulfation, times lower than that of hepatic glucuronidation [11]: about 60 times
- dermal absorption fraction ([12]; dissolved in ethanol, used for PCPs, ref Biedermann et al. 2010): 60%
- reported dermal absorption ([12]; range over several studies, different study designs and solvents): 9.3% to 60
